Test results reported in patent publication US20060276372A1, “Carotenoids, carotenoid analogs, or carotenoid derivatives for the treatment of proliferative disorders” (priority 2005, published 2006).
Entries after “also recorded” stand apart in the source; their conditions may differ. Counter-ions that a name gives are not always drawn. Like-named read-outs stand apart in the source and are kept apart here.

What was measured:
[1] = Oral administration, pharmacokinetics in mice; format: in vivo; details: oral preparation in lipophilic emulsion, single and multiple dose, murine model
[2] = cited from earlier work
superoxide anion [3] = details: mM concentrations, aqueous phase; cited from earlier work
[4] = doses up to 75 mg/kg, rat; cited from earlier work
[5] = 50 mg/kg, canines; cited from earlier work
[6] = mice; cited from earlier work
CX43 = details: aqueous ethanolic formulation, carcinogen-promoted 10T1/2 cells; cited from earlier work
superoxide anion [7] = assay: Direct superoxide anion scavenging by EPR spectroscopy (DEPMPO spin trap), PMA-stimulated isolated human PMNs; format: cell-based; details: aqueous phase; statistical mixture and individual stereoisomers
Protocol: Leukocyte Isolation and Preparation. Human polymorphonuclear leukocytes (PMNs) were isolated from freshly sampled venous blood of a single volunteer by Percoll density gradient centrifugation as described previously. Briefly, each 10 mL of whole blood was mixed with 0.8 mL of 0.1 M EDTA and 25 mL of saline. The diluted blood was then layered over 9 mL of Percoll at a specific density of 1.080 g/mL. After centrifugation at 400×g for 20 min at 20° C., the plasma, mononuclear cell, and Percoll layers were removed. Erythrocytes were subsequently lysed by addition of 18 mL of ice-cold water for 30 s, followed by 2 mL of 10×PIPES buffer (25 mM PIPES, 110 mM NaCl, and 5 mM KCl, titrated to pH 7.4 with NaOH). Cells were then pelleted at 4° C., the supernatant was decanted, and the procedure was repeated. After the second hypotonic cell lysis, cells were washed twice with PAG buffer [PIPES buffer containing 0.003% human serum albumin (HSA) and 0.1% glucose]. Afterward, PMNs were counted by light microscopy on a hemocytometer. The isolation yielded PMNs with a purity of >95%. The final pellet was then suspended in PAG-CM buffer (PAG buffer with 1 mM CaCl2 and 1 mM MgCl2).
EPR Measurements. All EPR measurements were performed using a Bruker ER 300 EPR spectrometer operating at X-band with a TM110 cavity as previously described. The microwave frequency was measured with a Model 575 microwave counter (EIP Microwave, Inc., San Jose, Calif.). To measure superoxide anion (O2) generation from phorbol-ester (PMA)-stimulated PMNs, EPR spin-trapping studies were performed using the spin trap DEPMPO (Oxis, Portland, Oreg.) at 10 mM. 1×10^6 PMNs were stimulated with PMA (1 ng/mL) and loaded into capillary tubes for EPR measurements. To determine the radical scavenging ability of 3 and 9 in aqueous and ethanolic formulations, PMNs were pre-incubated for 5 minutes with test compound, followed by PMA stimulation.
Instrument settings used in the spin-trapping experiments were as follows: modulation amplitude, 0.32 G; time constant, 0.16 s; scan time, 60 s; modulation frequency, 100 kHz; microwave power, 20 milliwatts; and microwave frequency, 9.76 GHz. The samples were placed in a quartz EPR flat cell, and spectra were recorded. The component signals in the spectra were identified and quantified as reported previously.

[8] = Cardiac ischemia-reperfusion injury, experimental infarction model; format: in vivo, rat; details: intravenous pretreatment, rodents, highest dose tested
[9] = biological target: human serum albumin (HSA) (Homo sapiens, UniProt P02768); assay: Plasma-protein binding studies in vitro
Chain of human serum albumin (HSA) (P02768 25-609): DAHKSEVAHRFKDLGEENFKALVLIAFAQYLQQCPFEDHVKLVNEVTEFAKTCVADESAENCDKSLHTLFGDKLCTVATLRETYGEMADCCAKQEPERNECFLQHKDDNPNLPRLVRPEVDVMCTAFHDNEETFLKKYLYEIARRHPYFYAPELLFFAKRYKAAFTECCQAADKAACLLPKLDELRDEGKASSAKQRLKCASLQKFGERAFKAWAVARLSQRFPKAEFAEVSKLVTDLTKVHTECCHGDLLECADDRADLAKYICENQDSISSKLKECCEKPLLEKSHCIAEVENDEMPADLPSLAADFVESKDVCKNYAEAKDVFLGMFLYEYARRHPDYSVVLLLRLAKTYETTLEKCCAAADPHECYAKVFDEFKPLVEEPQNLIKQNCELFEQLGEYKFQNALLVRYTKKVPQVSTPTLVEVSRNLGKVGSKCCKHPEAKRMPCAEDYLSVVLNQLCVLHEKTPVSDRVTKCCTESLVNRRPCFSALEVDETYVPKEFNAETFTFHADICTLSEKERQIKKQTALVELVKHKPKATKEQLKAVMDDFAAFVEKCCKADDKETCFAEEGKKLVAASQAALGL

SMILES: CC1=C(/C=C/C(C)=C/C=C/C(C)=C/C=C/C=C(C)/C=C/C=C(C)/C=C/C2=C(C)C(=O)C(OC(=O)CCC(=O)O)CC2(C)C)C(C)(C)CC(OC(=O)CCC(=O)O)C1=O (racemic) [dAST, disodium salt disuccinate ester of astaxanthin]
- plasma and tissue levels of nonesterified astaxanthin [1]: significant plasma and tissue levels of nonesterified astaxanthin were achieved
- concentration of pseudo-solution in water [2]: up to 8 mg/ml; also recorded: approximately 10 mM
- inhibition of the induced superoxide anion (superoxide anion [3]): complete inhibition
- protection against cardiac ischemia-reperfusion (I/R) injury [4]: significantly protect against cardiac ischemia-reperfusion (I/R) injury
- protection against cardiac ischemia-reperfusion (I/R) injury [5]: significantly protect against cardiac ischemia-reperfusion (I/R) injury
- absorption and tissue distribution after oral administration [6]: rapid absorption of the compound, its cleavage to free astaxanthin, and accumulation in certain target tissues
- expression of CX43 and GJIC (CX43): increased expression of the connexin protein CX43 and GJIC

SMILES: CC1=C(/C=C/C(C)=C/C=C/C(C)=C/C=C/C=C(C)/C=C/C=C(C)/C=C/C2=C(C)C(=O)C(OC(=O)CCC(=O)O)CC2(C)C)C(C)(C)CC(OC(=O)CCC(=O)O)C1=O (stereo not shown) [dAST, disodium salt disuccinate ester of astaxanthin]
- direct scavenging of superoxide anion (superoxide anion [7]): potent direct scavengers of superoxide anion in the aqueous phase
- myocardial salvage [8]: up to 56%

SMILES: CC(C=CC=C(C)C=CC1=C(C)C(=O)C(OC(=O)CCC(=O)[O-])CC1(C)C)=CC=CC=C(C)C=CC=C(C)C=CC1=C(C)C(=O)C(OC(=O)CCC(=O)[O-])CC1(C)C.[Na+].[Na+] [meso-(3R,3′S)-disodium disuccinate astaxanthin]
- binding to human serum albumin [9]: bound immediately and preferentially to human serum albumin (HSA) at a binding site
